Source: the NIST ThermoML archive (doi:10.1021/je800334m)

What was measured:
[1] = Liquid
[2] = excess molar enthalpy (molar enthalpy of mixing); xn = mol fraction of the nth substance listed; conditions: Liquid

CC(C)O [propan-2-ol]
molar volume [m3/mol], [1]
Conditions | 298.15 K | 313.15 K | 328.15 K
100 kPa | 7.694e-05 | 7.822e-05 | 7.962e-05
10000 kPa | 7.594e-05 | 7.72e-05 | 7.857e-05

CN(C)CCO [2-(N,N-dimethylamino)ethanol] + CC(C)O
excess molar enthalpy [kJ/mol], [2]
Conditions | 298.2 K | 313.2 K | 328.2 K
100 kPa, x1 = 0.0496 | – | -0.0169 | –
100 kPa, x1 = 0.0499 | – | – | -0.0359
100 kPa, x1 = 0.1008 | 0.0162 | -0.0173 | –
100 kPa, x1 = 0.1014 | – | – | -0.0511
100 kPa, x1 = 0.1502 | 0.0279 | -0.0127 | –
100 kPa, x1 = 0.1511 | – | – | -0.0566
100 kPa, x1 = 0.1994 | 0.0372 | -0.007 | –
100 kPa, x1 = 0.2005 | – | – | -0.0574
100 kPa, x1 = 0.2501 | 0.0433 | -0.0027 | –
100 kPa, x1 = 0.2513 | – | – | -0.0566
100 kPa, x1 = 0.3005 | 0.0467 | 0.0009 | –
100 kPa, x1 = 0.3018 | – | – | -0.0553
100 kPa, x1 = 0.3504 | 0.048 | 0.0029 | –
100 kPa, x1 = 0.3519 | – | – | -0.0543
100 kPa, x1 = 0.3999 | 0.0476 | 0.0034 | –
100 kPa, x1 = 0.4015 | – | – | -0.0533
100 kPa, x1 = 0.4507 | 0.0454 | 0.003 | –
100 kPa, x1 = 0.4524 | – | – | -0.0518
100 kPa, x1 = 0.501 | 0.042 | 0.002 | –
100 kPa, x1 = 0.5026 | – | – | -0.0501
100 kPa, x1 = 0.5505 | 0.0373 | -0.0005 | –
100 kPa, x1 = 0.5522 | – | – | -0.0481
100 kPa, x1 = 0.5993 | 0.0328 | -0.0012 | –
100 kPa, x1 = 0.6009 | – | – | -0.0458
100 kPa, x1 = 0.6508 | – | – | -0.0429
10000 kPa, x1 = 0.0499 | – | -0.0184 | -0.0392
10000 kPa, x1 = 0.0998 | 0.0136 | -0.0194 | -0.0539
10000 kPa, x1 = 0.1494 | – | -0.0191 | –
10000 kPa, x1 = 0.2005 | 0.0345 | -0.0099 | -0.0607
10000 kPa, x1 = 0.2496 | 0.0401 | -0.0056 | -0.0598
10000 kPa, x1 = 0.3 | 0.0433 | -0.0025 | -0.0583
10000 kPa, x1 = 0.35 | 0.0447 | -0.0007 | -0.0566
10000 kPa, x1 = 0.3995 | 0.0446 | -0.0001 | -0.055
10000 kPa, x1 = 0.4504 | 0.0431 | -0.0004 | -0.0532
10000 kPa, x1 = 0.5006 | 0.0406 | -0.0013 | -0.0513
10000 kPa, x1 = 0.5501 | 0.0372 | -0.0026 | -0.0492
10000 kPa, x1 = 0.6009 | 0.033 | – | -0.0466
10000 kPa, x1 = 0.6508 | – | – | -0.0457

CN(C)CCO [2-(N,N-dimethylamino)ethanol] + CCCO
excess molar enthalpy [kJ/mol], [2], Flow calorimetry
Conditions | 298.2 K | 313.2 K | 328.2 K
100 kPa, x1 = 0.2007 | -0.191 | – | -0.264
100 kPa, x1 = 0.2509 | -0.214 | – | -0.291
100 kPa, x1 = 0.2984 | – | -0.251 | –
100 kPa, x1 = 0.3008 | -0.231 | – | -0.313
100 kPa, x1 = 0.3505 | -0.244 | -0.267 | -0.327
100 kPa, x1 = 0.3999 | -0.251 | – | -0.333
100 kPa, x1 = 0.4012 | – | -0.276 | –
100 kPa, x1 = 0.4501 | – | -0.279 | –
100 kPa, x1 = 0.4507 | -0.252 | – | -0.333
100 kPa, x1 = 0.499 | -0.254 | – | -0.327
100 kPa, x1 = 0.5004 | – | -0.277 | –
100 kPa, x1 = 0.5488 | – | -0.269 | –
100 kPa, x1 = 0.5509 | -0.245 | – | -0.313
100 kPa, x1 = 0.5985 | – | -0.257 | –
100 kPa, x1 = 0.6 | -0.234 | – | -0.296
100 kPa, x1 = 0.6497 | – | -0.239 | –
100 kPa, x1 = 0.6505 | -0.219 | – | -0.272
100 kPa, x1 = 0.6986 | – | -0.217 | –
100 kPa, x1 = 0.7001 | – | – | -0.245
100 kPa, x1 = 0.7488 | – | -0.19 | –
100 kPa, x1 = 0.8005 | – | -0.158 | –
100 kPa, x1 = 0.8495 | – | -0.124 | –
10000 kPa, x1 = 0.2001 | -0.191 | – | -0.264
10000 kPa, x1 = 0.2492 | – | -0.231 | –
10000 kPa, x1 = 0.2503 | -0.214 | – | -0.293
10000 kPa, x1 = 0.2998 | – | -0.256 | –
10000 kPa, x1 = 0.3004 | -0.231 | – | -0.317
10000 kPa, x1 = 0.3489 | – | -0.27 | –
10000 kPa, x1 = 0.3502 | -0.243 | – | -0.331
10000 kPa, x1 = 0.3995 | -0.252 | -0.279 | -0.338
10000 kPa, x1 = 0.4484 | – | -0.282 | –
10000 kPa, x1 = 0.4504 | -0.255 | – | -0.339
10000 kPa, x1 = 0.4986 | – | -0.28 | –
10000 kPa, x1 = 0.5007 | -0.253 | – | -0.332
10000 kPa, x1 = 0.5504 | -0.245 | -0.272 | -0.32
10000 kPa, x1 = 0.5994 | -0.234 | – | -0.302
10000 kPa, x1 = 0.6001 | – | -0.258 | –
10000 kPa, x1 = 0.6497 | -0.221 | – | -0.279
10000 kPa, x1 = 0.6512 | – | -0.24 | –
10000 kPa, x1 = 0.7 | – | -0.217 | –
10000 kPa, x1 = 0.7501 | – | -0.189 | –
10000 kPa, x1 = 0.8015 | – | -0.157 | –
10000 kPa, x1 = 0.8503 | – | -0.123 | –

CO [methanol]
molar volume [m3/mol], [1]
Conditions | 298.15 K | 313.15 K | 328.15 K
100 kPa | 4.073e-05 | 4.146e-05 | 4.221e-05
10000 kPa | 4.024e-05 | 4.096e-05 | 4.17e-05

CN(C)CCO [2-(N,N-dimethylamino)ethanol]
molar volume [m3/mol], [1]
Conditions | 298.15 K | 313.15 K | 328.15 K
100 kPa | 0.0001009 | 0.0001024 | 0.0001039
10000 kPa | 0.0001009 | 0.0001024 | 0.0001039

CCCO [propan-1-ol]
molar volume [m3/mol], [1]
Conditions | 298.15 K | 313.15 K | 328.15 K
100 kPa | 7.514e-05 | 7.632e-05 | 7.759e-05
10000 kPa | 7.452e-05 | 7.569e-05 | 7.694e-05

CCO [ethanol]
molar volume [m3/mol], [1]
Conditions | 298.15 K | 313.15 K | 328.15 K
100 kPa | 5.867e-05 | 5.964e-05 | 6.067e-05
10000 kPa | 5.803e-05 | 5.899e-05 | 6.001e-05
